pEC50: −log10 of the molar value.

One test addresses cyclophilin B (Homo sapiens, UniProt P23284). The experiment in a line: Cyclophilin inhibition binding, competitive ELISA (Cyclophilin B). The following applies: human recombinant cyclophilin, read-out: EC50 against cyclophilin B. As to the method: The cyclophilin inhibition binding of compounds disclosed herein was determined using a competitive ELISA adapted from the methods described by Quesniaux et al. (Eur. J Immunol., 1987, 17:1359-1365). Activated ester of succinyl spacers bound to D-Lys^8-cylosporine A (D-Lys^8-Cs) are coupled to bovine serum albumin (BSA) through D-lysyl residue in position 8. BSA is dissolved in 0.1 M borate buffer, pH 9.0 (4 mg in 1.4 ml). A hundredfold molar excess of D-Lys^8-Cs dissolved in dimethyl formamide (0.6 ml) is added drop wise to the BSA under vigorous stirring. […] After acetone precipitation of an aliquot of the conjugated protein, no covalently bound D-Lys^8-Cs remains in the acetone solution and the extent of cyclosporine covalent binding is calculated.
Microtiter Plates are coated with D-Lys^8-Cs-BSA conjugate (2 μg/ml in PBS for 24 hours at 4° C.). […] Cyclophilin is detected with anti-cyclophilin rabbit antiserum diluted in 1% BSA containing PBS and incubates overnight at 4° C. […] Bound rabbit antibodies are then detected by goat anti-rabbit IgG conjugated to alkaline phosphatase diluted in 1% BSA-PBS and allowed to incubate for 2 hours at 37° C. […] After incubation with 4-nitrophenyl phosphate (1 g/l in diethanolamine buffer, pH 9.8) for 1 to 2 hours at 37° C., the enzymatic reaction is measured spectrophotometrically at 405 nm using a spectrophotometer. […]

Test [1] has as its system Sprague-Dawley rats with induced Acute Kidney Injury. The experiment in a line: Renal Ischemia-Reperfusion Induced Acute Kidney Injury in rats. To be noted: for Creatinine: serum 24 hours after ligation/release. It is filed as in vivo, rat. How it is done: With the exception of Group (i), i.e. the ‘sham group’, renal Ischemia-Reperfusion Induced Acute Kidney Injury (AKI) was induced in the rats by ligation of bilateral renal arteries for 30 min and then ligation was released. Animals in the control and treatment groups were administered intraperitoneal injections three times (1 h before ligation, 4 h and 8 h after ligation). Blood was taken from the animals 24 hours after the ligation/release procedure and analyzed for serum Creatinine and Blood Urea Nitrogen (BUN) concentrations, as a measure of kidney injury.

The target in the next test is Cyclophilin D (Homo sapiens, UniProt P30405). The experiment in a line: Cyclophilin inhibition binding, competitive ELISA (Cyclophilin D). The following applies: human recombinant cyclophilin, read-out: CypD EC50. How it is done:
(§1) The cyclophilin inhibition binding of compounds disclosed herein was determined using a competitive ELISA adapted from the methods described by Quesniaux et al. (Eur. J Immunol., 1987, 17:1359-1365). Activated ester of succinyl spacers bound to D-Lys^8-cylosporine A (D-Lys^8-Cs) are coupled to bovine serum albumin (BSA) through D-lysyl residue in position 8. BSA is dissolved in 0.1 M borate buffer, pH 9.0 (4 mg in 1.4 ml). A hundredfold molar excess of D-Lys^8-Cs dissolved in dimethyl formamide (0.6 ml) is added drop wise to the BSA under vigorous stirring. The coupling reaction is performed for 2 to 3 hours at room temperature under mild stirring and the conjugate is extensively dialyzed against phosphate-buffered saline (PBS, pH 7.4).
(§2) Microtiter Plates are coated with D-Lys^8-Cs-BSA conjugate (2 μg/ml in PBS for 24 hours at 4° C.). Plates are washed with Tween®/PBS and with PBS alone. To block nonspecific binding, 2% BSA/PBS (pH 7.4) is added to the wells and allowed to incubate for 2 hours at 37° C. […] Cyclophilin is detected with anti-cyclophilin rabbit antiserum diluted in 1% BSA containing PBS and incubates overnight at 4° C. […] Bound rabbit antibodies are then detected by goat anti-rabbit IgG conjugated to alkaline phosphatase diluted in 1% BSA-PBS and allowed to incubate for 2 hours at 37° C. […]

The next test addresses Cyclophilin A (Homo sapiens, UniProt P62937). The experiment in a line: Cyclophilin inhibition binding, competitive ELISA (Cyclophilin A). To be noted: human recombinant cyclophilin, read-out: CypA EC50. As to the method: as §1, §2
A general note: In an ELISA, binding on a coated surface is turned into a signal by an enzyme label.

Sequence of cyclophilin B (P23284 34-216): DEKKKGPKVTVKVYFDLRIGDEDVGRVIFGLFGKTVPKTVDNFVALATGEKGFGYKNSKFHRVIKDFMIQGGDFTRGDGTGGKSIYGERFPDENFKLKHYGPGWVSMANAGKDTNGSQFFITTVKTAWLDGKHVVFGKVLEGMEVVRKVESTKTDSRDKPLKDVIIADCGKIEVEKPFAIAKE
Sequence of Cyclophilin D (P30405 30-207): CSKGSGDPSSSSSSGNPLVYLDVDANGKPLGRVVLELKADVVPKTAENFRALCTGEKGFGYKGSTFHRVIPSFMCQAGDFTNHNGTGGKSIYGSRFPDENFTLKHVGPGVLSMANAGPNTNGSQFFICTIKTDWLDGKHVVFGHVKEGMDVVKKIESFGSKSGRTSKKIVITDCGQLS
Sequence of Cyclophilin A (P62937 whole entry): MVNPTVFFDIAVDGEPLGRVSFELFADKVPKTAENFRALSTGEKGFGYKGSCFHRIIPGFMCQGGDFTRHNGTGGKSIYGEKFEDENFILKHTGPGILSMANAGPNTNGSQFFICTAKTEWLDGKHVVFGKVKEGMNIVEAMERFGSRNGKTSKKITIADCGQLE

For orientation: pEC50 means −log10 of the EC50, conventionally taken in molar units. As to `C/C=C/C[C@@H](C)[C@@H](O)[C@H]1C(=O)N[C@@H](CC)C(=O)N(C)[C@H](OCCN(C)C)C(=O)N(C)[C@@H](CC(C)C)C(=O)N[C@@H](C(C)C)C(=O)N(C)[C@@H](CC(C)C)C(=O)N[C@@H](C)C(=O)N[C@H](C)C(=O)N(C)[C@@H](CC(C)C)C(=O)N(C)[C@@H](CC(C)C)C(=O)N(C)[C@@H](C(C)C)C(=O)N1C` [Compound 1], the pEC50 on cyclophilin B is over 7.00.

Regarding `C/C=C/C[C@@H](C)[C@@H](O)[C@H]1C(=O)N[C@@H](CC)C(=O)N(C)CC(=O)N(C)[C@@H](CC(C)C)C(=O)N[C@@H](C(C)C)C(=O)N(C)[C@@H](CC(C)C)C(=O)N[C@@H](C)C(=O)N[C@H](C)C(=O)N(C)[C@@H](CC(C)C)C(=O)N(C)[C@@H](CC(C)C)C(=O)N(C)[C@@H](C(C)C)C(=O)N1C` [CsA, Cyclosporin A], the Creatinine in test [1] (3 mg/kg i.p. three times) came to 115 µmol/L; in test [1] (10 mg/kg i.p. three times) it was 290 µmol/L. In addition, in test [1] (10 mg/kg i.p. three times, 24 hours after ligation/release), the “Blood Urea Nitrogen” value worked out at 42 mmol/L.

Regarding `C/C=C/C[C@@H](C)[C@@H](O)[C@H]1C(=O)N[C@@H](CC)C(=O)N(C)[C@H](OCCNC)C(=O)N(C)[C@@H](CC(C)C)C(=O)N[C@@H](C(C)C)C(=O)N(C)[C@@H](CC(C)C)C(=O)N[C@@H](C)C(=O)N[C@H](C)C(=O)N(C)[C@@H](CC(C)C)C(=O)N(C)[C@@H](CC(C)C)C(=O)N(C)[C@@H](C(C)C)C(=O)N1C` [Entry 1], the pEC50 is 5.66 at Cyclophilin D and 7.21 on Cyclophilin A.

These data come from patent US20250177477A1, “CYCLOSPORIN ANALOGUES AND USES THEREOF” (DYNEQ MEDICAL LIMITED, priority 2017, published 2025).
